This series can be described thus: 10-day SC study in-life assessments (mortality, body weight, tolerability). Format: in vivo, cynomolgus monkey. Here is the method: Administration of Compound of Formula IIa. The test agent (compound of formula IIa) was administered daily via subcutaneous injection into the scapular and mid-dorsal areas for 10 days. The first day of dosing was designated as Day 1. Dose formulations were allowed to warm up at ambient temperature for at least 30 minutes prior to dosing, as appropriate. The animals were temporarily restrained for dose administration and were not sedated. The volume for each dose was administered over 1 (preferred) or 2 (as necessary) separated injections within the designated area. If a designated injection site was not available for a given animal on any day, the next available test site in the rotation was used. The injection area was marked as frequently as required to allow appropriate visualization of administration sites. On the last injection occasion for each quadrant, the last site of injection was circled, and the circled site was collected for necropsy.
In-life procedures, observations, and measurements.

The mark [1] stands for this setting: SC 5 mg/kg/day for 10 days, 3 males.

On to `Cc1cc(O)cc(C)c1C[C@H](NC(=O)[C@H](N)CCCNC(=N)N)C(=O)N[C@@H](CCCCN)c1nc(Cc2ccccc2)no1.Cl.Cl.Cl` [Formula IIa, (R)-2-amino-N—((S)-1-(((S)-5-amino-1-(3-benzyl-1,2,4-oxadiazol-5-yl)pentyl)amino)-3-(4-hydroxy-2,6-dimethylphenyl)-1-oxopropan-2-yl)-5-guanidinopentanamide], for which, under “5 mg/kg/day for 10 days”, the “tolerability of administration by subcutaneous injection” value is on record as “well-tolerated”. In addition, under setting [1], the “body weights, differences related to administration” value is given as “no differences in body weights” and the “mortality during the study” value was “no mortality”.
